In PubChem BioAssay AID330 (DTP/NCI, 2004):
Values joined by “and” are separate entries in the source; they are usually repeats but may differ in a detail not shown here. Identical values can stand only once. Toxic doses and inconclusive results are not listed. The calls were made as follows: active = survival T/C of 150% or more; inactive = T/C below 125% in these data.

System: P388 leukemia ip, CD2F1 mice, survival T/C
Experiment: NCI In Vivo Anticancer Drug Screen. Data for tumor model P388 Leukemia (intraperitoneal) in CD2F1 (CDF1) mice
Conditions: endpoint: median survival time, higher = longer survival
How it was run: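 Mice carrying the transplanted tumor received test compound or vehicle. Survival was recorded in each group, and the value is the treated-group measurement divided by that of the vehicle-treated control group.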

[1] = dose: 50.0 mg/kg/injection, schedule: Q01DX005 (ip), vehicle: Klucel (hydroxypropylcellulose) (HPC)
[2] = dose: 100.0 mg/kg/injection, schedule: Q01DX005 (ip), vehicle: Klucel (hydroxypropylcellulose) (HPC)
[3] = dose: 200.0 mg/kg/injection, schedule: Q01DX005 (ip), vehicle: Klucel (hydroxypropylcellulose) (HPC)
[4] = dose: 50.0 mg/kg/injection, schedule: Q01DX005 (ip), vehicle: saline with Tween-80
[5] = dose: 100.0 mg/kg/injection, schedule: Q01DX005 (ip), vehicle: saline with Tween-80
[6] = dose: 200.0 mg/kg/injection, schedule: Q01DX005 (ip), vehicle: saline with Tween-80
[7] = dose: 60.0 mg/kg/injection, schedule: Q01DX005 (ip), vehicle: saline with Tween-80
[8] = dose: 120.0 mg/kg/injection, schedule: Q01DX005 (ip), vehicle: saline with Tween-80
[9] = dose: 240.0 mg/kg/injection, schedule: Q01DX005 (ip), vehicle: saline with Tween-80
[10] = dose: 50.0 mg/kg/injection, schedule: Q01DX009 (ip), vehicle: suspension in saline
[11] = dose: 100.0 mg/kg/injection, schedule: Q01DX009 (ip), vehicle: suspension in saline
[12] = dose: 200.0 mg/kg/injection, schedule: Q01DX009 (ip), vehicle: suspension in saline
[13] = dose: 25.0 mg/kg/injection, schedule: Q01DX005 (ip), vehicle: saline with Tween-80

Measured: T/C

CN=C(NCCSCc1ccc2ccccc2n1)NS(=O)(=O)c1ccccc1
inactive: dose: 50.0 mg/kg/injection, schedule: Q01DX005 (ip), vehicle: saline 106 % of control | dose: 100.0 mg/kg/injection, schedule: Q01DX005 (ip), vehicle: saline 106 % of control | dose: 200.0 mg/kg/injection, schedule: Q01DX005 (ip), vehicle: saline 100 % of control

COc1ccc(N(C)C(=S)c2ccccc2)cc1
inactive: [1] 103 % of control | [2] 96 % of control | [3] 92 % of control

c1ccc(N=C2N=c3ccccc3=C2c2c(Nc3ccccc3)[nH]c3ccccc23)cc1
inactive: [4] 89 % of control | [5] 90 % of control | [6] 92 % of control

CC(=O)OC1C(=O)C=C(C)OC1=O (stereo unspecified)
inactive: [7] 102 % of control | [8] 99 % of control | [9] 106 % of control

NC(=S)N/N=C/c1c(Br)n(-c2ccccc2)c2ccccc12
inactive: dose: 100.0 mg/kg/injection, schedule: Q01DX001 (ip), vehicle: Klucel (hydroxypropylcellulose) (HPC) 94 % of control | dose: 200.0 mg/kg/injection, schedule: Q01DX001 (ip), vehicle: Klucel (hydroxypropylcellulose) (HPC) 98 % of control | dose: 400.0 mg/kg/injection, schedule: Q01DX001 (ip), vehicle: Klucel (hydroxypropylcellulose) (HPC) 91 % of control

O=C([O-])c1ccccc1[O-].[Cu+2].c1ccc(-c2ccccn2)nc1
inactive: dose: 6.25 mg/kg/injection, schedule: Q01DX005 (ip), vehicle: Klucel (hydroxypropylcellulose) (HPC) 104 % of control | dose: 12.5 mg/kg/injection, schedule: Q01DX005 (ip), vehicle: Klucel (hydroxypropylcellulose) (HPC) 113 % of control

Fc1ccc(CSC(=S)Nc2ccc(F)cc2)cc1
inactive: [10] 108 % of control | [11] 103 % of control | [12] 108 % of control

CC1CN=C(c2ccc(NC(=O)NCCCCCCCCCCCCNC(=O)Nc3ccc(C4=NCC(C)N4)cc3)cc2)N1 (stereo unspecified)
inactive: dose: 6.25 mg/kg/injection, schedule: Q01DX005 (ip), vehicle: saline with Tween-80 103 % of control | dose: 12.5 mg/kg/injection, schedule: Q01DX005 (ip), vehicle: saline with Tween-80 103 % of control | [13] 108 % of control | [4] 106 % of control | [5] 116 % of control

COC(=O)C1=CO[C@@H](C)[C@@H]2CN3CCc4c([nH]c5ccc(OC)cc45)[C@@H]3C[C@H]12
inactive: [4] 106 % of control | [5] 101 % of control | [6] 105 % of control

O=C(Cc1cccc2c(=O)cc(-c3ccccc3)oc12)OCCO
inactive: dose: 25.0 mg/kg/injection, schedule: Q01DX005 (ip), vehicle: Klucel (hydroxypropylcellulose) (HPC) 100 % of control | [1] 103 % of control and 91 % of control | [2] 100 % of control and 110 % of control | [3] 120 % of control

C#C/C=C/CC1OC(C(Br)CC)/C=C\CCC1Cl (stereo unspecified)
inactive: dose: 2.0 mg/kg/injection, schedule: Q01DX009 (ip), vehicle: Klucel (hydroxypropylcellulose) (HPC) 94 % of control | dose: 4.0 mg/kg/injection, schedule: Q01DX009 (ip), vehicle: Klucel (hydroxypropylcellulose) (HPC) 98 % of control | dose: 8.0 mg/kg/injection, schedule: Q01DX009 (ip), vehicle: Klucel (hydroxypropylcellulose) (HPC) 103 % of control | dose: 16.0 mg/kg/injection, schedule: Q01DX009 (ip), vehicle: Klucel (hydroxypropylcellulose) (HPC) 94 % of control

CC1=Nc2cc(N)nn2C(=O)C1
inactive: [13] 93 % of control | [4] 96 % of control | [5] 102 % of control | [6] 93 % of control

N#Cc1ccc(NN=NCCO)cc1
inactive: dose: 12.5 mg/kg/injection, schedule: Q01DX009 (ip), vehicle: distilled water + Tween-80 100 % of control | dose: 25.0 mg/kg/injection, schedule: Q01DX009 (ip), vehicle: distilled water + Tween-80 102 % of control | dose: 50.0 mg/kg/injection, schedule: Q01DX009 (ip), vehicle: distilled water + Tween-80 100 % of control | dose: 100.0 mg/kg/injection, schedule: Q01DX009 (ip), vehicle: distilled water + Tween-80 102 % of control

CC(C)OC(=O)CC1NS(=O)(=O)c2ccccc21 (stereo unspecified)
inactive: dose: 50.0 mg/kg/injection, schedule: Q01DX005 (ip), vehicle: suspension in saline 103 % of control | dose: 100.0 mg/kg/injection, schedule: Q01DX005 (ip), vehicle: suspension in saline 103 % of control | dose: 200.0 mg/kg/injection, schedule: Q01DX005 (ip), vehicle: suspension in saline 100 % of control

Nc1ncnc2c1nc(Br)n2C1OC2COP(=O)(O)OC2C1O (stereo unspecified)
inactive: [10] 100 % of control | [11] 96 % of control | [12] 100 % of control

O=C(O)C[N-]CC[N-]CC(=O)O.[Cl][Pt+2][Cl]
inactive: dose: 6.25 mg/kg/injection, schedule: Q04DX002 (ip), vehicle: saline with Tween-80 108 % of control | dose: 12.5 mg/kg/injection, schedule: Q04DX002 (ip), vehicle: saline with Tween-80 103 % of control | dose: 25.0 mg/kg/injection, schedule: Q04DX002 (ip), vehicle: saline with Tween-80 113 % of control | dose: 50.0 mg/kg/injection, schedule: Q04DX002 (ip), vehicle: saline with Tween-80 109 % of control | dose: 100.0 mg/kg/injection, schedule: Q04DX002 (ip), vehicle: saline with Tween-80 120 % of control | dose: 200.0 mg/kg/injection, schedule: Q04DX002 (ip), vehicle: saline with Tween-80 102 % of control

CC(=O)c1ccn[nH]1
inactive: [4] 98 % of control | [5] 99 % of control | [6] 110 % of control

CN=c1s[se]c2ccccc12
inactive: dose: 12.5 mg/kg/injection, schedule: Q01DX009 (ip), vehicle: Klucel (hydroxypropylcellulose) (HPC) 102 % of control | dose: 25.0 mg/kg/injection, schedule: Q01DX009 (ip), vehicle: Klucel (hydroxypropylcellulose) (HPC) 94 % of control

CC(C)CCCC(C)C1CCC2C3CC=C4CC(O)CCC4(C)C3CCC12C (stereo unspecified) (tested in a mixture with another compound)
inactive: dose: 3.12 mg/kg/injection, schedule: Q01DX009 (ip), vehicle: saline 87 % of control | dose: 6.25 mg/kg/injection, schedule: Q01DX009 (ip), vehicle: saline 92 % of control | dose: 12.5 mg/kg/injection, schedule: Q01DX009 (ip), vehicle: saline 94 % of control | dose: 25.0 mg/kg/injection, schedule: Q01DX009 (ip), vehicle: saline 94 % of control

COC(=O)NC1CC1C(=O)OC (stereo unspecified)
inactive: dose: 100.0 mg/kg/injection, schedule: Q01DX002 (ip), vehicle: saline 104 % of control | dose: 200.0 mg/kg/injection, schedule: Q01DX002 (ip), vehicle: saline 99 % of control | dose: 400.0 mg/kg/injection, schedule: Q01DX002 (ip), vehicle: saline 102 % of control

CC(C)c1c(CN(C)C(C)Cc2ccccc2)n(C)n(-c2ccccc2)c1=O (stereo unspecified)
inactive: [7] 108 % of control | [8] 105 % of control | [9] 98 % of control

Cc1cc(C)c(SSc2nnnn2C)c(C)c1
inactive: dose: 50.0 mg/kg/injection, schedule: Q01DX009 (ip), vehicle: Klucel (hydroxypropylcellulose) (HPC) 100 % of control | dose: 100.0 mg/kg/injection, schedule: Q01DX009 (ip), vehicle: Klucel (hydroxypropylcellulose) (HPC) 90 % of control

CCOC(=O)CNC(=O)C(CSSCC(NC(=O)OCc1ccccc1)C(=O)OC)NC(=O)C(NC(=O)OCc1ccccc1)C(C)C (stereo unspecified)
inactive: [1] 100 % of control | [2] 98 % of control | [3] 95 % of control

CC(=O)SSC12CC3CC(CC(C3)C1)C2
inactive: dose: 30.0 mg/kg/injection, schedule: Q01DX005 (ip), vehicle: saline with Tween-80 100 % of control | [7] 100 % of control and 101 % of control | [8] 100 % of control and 104 % of control

Cc1c(/C=C/C(=O)O)no[n+]1[O-]
inactive: [4] 102 % of control | [5] 98 % of control | [6] 100 % of control

CC1(C=O)CCCC2(C)[C@@H]1CCC13CC(CO)C(CC[C@H]12)C3 (stereo partly specified)
inactive: dose: 1.63 mg/kg/injection, schedule: Q01DX005 (ip), vehicle: Klucel (hydroxypropylcellulose) (HPC) 86 % of control | dose: 3.25 mg/kg/injection, schedule: Q01DX005 (ip), vehicle: Klucel (hydroxypropylcellulose) (HPC) 88 % of control

O=C1c2c(ccc3ccccc23)CN2CCCCC12 (stereo unspecified)
inactive: [7] 101 % of control | [8] 103 % of control | [9] 103 % of control

CC(C)=CCC(OC(=O)C=C(C)C)c1cc(O)c2c(O)ccc(O)c2c1O.[Mn] (stereo unspecified)
inactive: dose: 25.0 mg/kg/injection, schedule: Q01DX001 (ip), vehicle: saline with Tween-80 111 % of control | dose: 50.0 mg/kg/injection, schedule: Q01DX001 (ip), vehicle: saline with Tween-80 108 % of control | dose: 100.0 mg/kg/injection, schedule: Q01DX001 (ip), vehicle: saline with Tween-80 111 % of control and 124 % of control | dose: 200.0 mg/kg/injection, schedule: Q01DX001 (ip), vehicle: saline with Tween-80 124 % of control
